# How the values were obtained:
# [1] = Ocular fluid and tissue concentrations, 0.4% Compound-I cyclodextrin solutions (Example 7, 24-day study); type: in vivo, Dutch-Belted rabbits; details: Dutch-Belted, rabbit, cornea, topical, 0.4 % (4 mg/mL), 30 μL/eye, Average concentration of Compound-I, Cornea, Group 11: 0.4% Compound-I in 4.88% CAPTISOL, […] phosphate; 30 μL/eye, 2 doses per day
# Method: The ocular solution of Compound-I comprising cyclodextrin was prepared and tested in different groups of animals.
# human tumor xenographs = test: Human tumor xenographs in athymic mice; type: in vivo; details: systemic administration
# FGFR-4 = FGFR-4 (Homo sapiens (Human), UniProt P22455); test: In vitro inhibition of tyrosine kinases; type: biochemical
# FGFR-2 = FGFR-2 (Homo sapiens (Human), UniProt P21802); test: In vitro inhibition of tyrosine kinases; type: biochemical
# [2] = Solubility of Compound-I in cyclodextrin ophthalmic solution; type: physicochemical; details: HP-β-CD at ≥1:6 molar ratio or SBE-β-CD at ≥1:2 ratio
# [3] = PK with topical ocular Compound-I in sodium phosphate-based Gel Drop; type: in vivo; details: Dutch-belted rabbits
# From the text: The Gel Drop of Compound-I was applied to eyes of Dutch-belted rabbits.
# The Gel Drop formulations (listed in Table 6) differed in several aspects, such as API concentration, sodium phosphate concentration, presence or absence of tonicity (glycerin) or preservative (benzalkoniumchloride/BAK) agents, solubilizing surfactants (polysorbate 80, tyloxapol, and/or poloxamer), and pH.
# [4] = biological target: recombinant FGFR-2 tyrosine kinase (Homo sapiens (Human), UniProt P21802); test: Inhibition of recombinant FGFR-2 tyrosine kinase using exogenous substrate; type: biochemical
# [5] = test system: pathologic retinal and choroidal neovascularization; test: Topical ocular delivery in rodent models of retinal and choroidal neovascularization; type: in vivo
# [6] = parameters: species or system Dutch-belted rabbits; details: rabbit, in vivo
# [7] = 1- to 5-day PK with topical ocular Compound-I formulations (Example 5); details: Dutch Belted, rabbit, aqueous humor, Average Concentration of Compound-I, Dutch Belted rabbits, topical ocular q.d. or b.i.d., 24 hr post-dose, Group per row, LLOQ 0.000903 μM
# Method: All doses were administered within ±1 hour of the scheduled dose time. On day 1, Groups 1, 2, 4-6, 8, 10, 11, 13, 15, and 17 received one dose (q.d.) for either one (1) or four (4) days. […] Animals in Groups 18 and 19 received b.i.d dosing of vehicle only formulations for five (5) consecutive days.
# Ocular sampling occurred for Group 1 at 0.5, 1, 2, 4, 8, or 24 hours post-dose relative to the day 1 dose. Ocular sampling occurred for Groups 2 and 6 at 1, 8, and 24 hours post-dose relative to the day 5 morning dose. Ocular sampling for Groups 3, 7, 8, 11, and 13 occurred at 1 and 24 hours post-dose relative to the day 5 morning dose. Ocular sampling for Groups 4, 9, 10, 12, 14, 15, 16, and 17 occurred at 1 hour post-dose relative to the day 5 morning dose. Group 5 ocular sampling occurred at 0.5, 1, 2, 4, 8, and 24 hours post-dose relative to the day 1 dose. Animals in Groups 18 and 19 were followed only by clinical observations for five (5) days.
# Aqueous humor, cornea, central and peripheral retina, and central and peripheral choroid samples were collected. Aqueous humor, cornea, central retina, and central choroid samples were then assayed. Peripheral retina and peripheral choroid samples were assayed only for Groups 1-8, 12, 14, and 16 per study protocol.
# Rabbit aqueous humor, cornea, central and peripheral retina, and central and peripheral choroid samples were analyzed.
# [8] = 5-day PK with topical ocular Compound-I in cyclodextrin-based solutions (Example 6); type: in vivo; details: HPβCD solutions, Dutch-Belted rabbits, q.d.; 24 hr after first daily dose on day 4 (Groups 5b, 6b); LLOQ 0.0218 μM
# Method: All doses were administered with ±1 hour of the scheduled dose time, except on day 1 for Groups 1, 4, and 10. The first dose on day 1 was administered at 12:00 PM, and the second dose (for Groups 1 and 10) was administered approximately 4 hours after. This was due to delayed arrival of formulations. All other dosing for these groups was as scheduled. On day 1, Groups 4-8, and 11-12 received one dose (q.d.) for four (4) days. On days 1 through 4, Groups 1-3, and 9-10 received b.i.d. dosing approximately 8 hours apart for four (4) days.
# Ocular sampling occurred one hour following the first daily dose on day 5 for all groups, except Groups 5b and 6b, where ocular sampling occurred 24 hours after the first daily dose on day 4.
# Blood samples for plasma collection were obtained just prior to scheduled euthanasia for all animals. […] Cornea, central retina, and central choroid samples from groups 1-12 were assayed. Aqueous humor, peripheral retina, and peripheral choroid samples were not assayed.
# [9] = parameters: species or system Dutch-Belted rabbits and beagle dogs; details: in vivo
# From the text: Animals that received topical ocular administration of the tromethamine-based suspension were able to tolerate up to higher level of the active agent concentration in the formulation, as compared to equimolar formulations of the sodium phosphate-based Gel Drop.
# Overall, the combination of decreased corneal exposure and corresponding improved ocular tolerability, while simultaneously maintaining or promoting drug delivery to the posterior segment target tissues, along with improved physicochemical stability, will provide greater benefit to patients compared to the ophthalmic Gel Drop formulation.
# (§1) Retinal function was normal in all test article and vehicle treated groups during full-field electroretinograms performed in rabbits.
# [10] = Ocular tissue concentrations, 0.3% Compound-I ophthalmic gel drop twice daily (toxicology study); type: in vivo, Dutch-Belted rabbits
# [11] = Ocular toxicology: clinical ophthalmic and microscopic examinations; type: in vivo, Dutch-Belted rabbits
# From the text: as §1
# KDR (VEGFR-2) = KDR (VEGFR-2) (Homo sapiens (Human), UniProt P35968); test: In vitro inhibition of tyrosine kinases; type: biochemical; details: 300 nM (170.67 ng/mL)
# pathologic angiogenesis = test: Systemic administration in murine cornea and rat growth plate models; type: in vivo
# [12] = 10-point titration curve (257 nM-5000 nM)
# [13] = Dutch-Belted (rabbit), beagle (dog), rabbit, dog
# [14] = 0.3% Ophthalmic Gel Drop, Twice Daily 29 days
# [15] = 0.3% ophthalmic gel drop with and without benzylalkonium chloride, twice daily, Dutch-Belted rabbits
# FGFR-2, sequence (P21802 22-821): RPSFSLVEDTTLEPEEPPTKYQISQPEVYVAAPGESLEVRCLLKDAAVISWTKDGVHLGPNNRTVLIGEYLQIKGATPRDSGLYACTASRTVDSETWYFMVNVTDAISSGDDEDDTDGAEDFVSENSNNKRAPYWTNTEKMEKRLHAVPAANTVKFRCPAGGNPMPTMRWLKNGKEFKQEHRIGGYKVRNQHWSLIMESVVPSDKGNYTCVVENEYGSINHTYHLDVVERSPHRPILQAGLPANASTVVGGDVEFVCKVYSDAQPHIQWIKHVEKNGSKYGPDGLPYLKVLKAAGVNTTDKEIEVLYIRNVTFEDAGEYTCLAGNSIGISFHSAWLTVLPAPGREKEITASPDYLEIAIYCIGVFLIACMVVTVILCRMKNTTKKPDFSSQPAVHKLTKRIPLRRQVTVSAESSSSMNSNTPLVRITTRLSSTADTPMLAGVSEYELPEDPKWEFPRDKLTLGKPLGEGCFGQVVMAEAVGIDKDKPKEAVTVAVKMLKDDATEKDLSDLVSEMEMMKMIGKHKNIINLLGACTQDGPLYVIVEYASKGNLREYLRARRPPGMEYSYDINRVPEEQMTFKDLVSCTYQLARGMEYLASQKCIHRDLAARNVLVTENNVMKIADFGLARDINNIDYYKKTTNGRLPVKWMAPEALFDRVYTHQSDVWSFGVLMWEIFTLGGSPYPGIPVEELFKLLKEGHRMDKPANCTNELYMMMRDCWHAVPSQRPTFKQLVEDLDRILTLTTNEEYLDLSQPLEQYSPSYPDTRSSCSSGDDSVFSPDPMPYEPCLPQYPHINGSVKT
# recombinant FGFR-2 tyrosine kinase, sequence (P21802 22-821): as above
# FGFR-4, sequence (P22455 22-802): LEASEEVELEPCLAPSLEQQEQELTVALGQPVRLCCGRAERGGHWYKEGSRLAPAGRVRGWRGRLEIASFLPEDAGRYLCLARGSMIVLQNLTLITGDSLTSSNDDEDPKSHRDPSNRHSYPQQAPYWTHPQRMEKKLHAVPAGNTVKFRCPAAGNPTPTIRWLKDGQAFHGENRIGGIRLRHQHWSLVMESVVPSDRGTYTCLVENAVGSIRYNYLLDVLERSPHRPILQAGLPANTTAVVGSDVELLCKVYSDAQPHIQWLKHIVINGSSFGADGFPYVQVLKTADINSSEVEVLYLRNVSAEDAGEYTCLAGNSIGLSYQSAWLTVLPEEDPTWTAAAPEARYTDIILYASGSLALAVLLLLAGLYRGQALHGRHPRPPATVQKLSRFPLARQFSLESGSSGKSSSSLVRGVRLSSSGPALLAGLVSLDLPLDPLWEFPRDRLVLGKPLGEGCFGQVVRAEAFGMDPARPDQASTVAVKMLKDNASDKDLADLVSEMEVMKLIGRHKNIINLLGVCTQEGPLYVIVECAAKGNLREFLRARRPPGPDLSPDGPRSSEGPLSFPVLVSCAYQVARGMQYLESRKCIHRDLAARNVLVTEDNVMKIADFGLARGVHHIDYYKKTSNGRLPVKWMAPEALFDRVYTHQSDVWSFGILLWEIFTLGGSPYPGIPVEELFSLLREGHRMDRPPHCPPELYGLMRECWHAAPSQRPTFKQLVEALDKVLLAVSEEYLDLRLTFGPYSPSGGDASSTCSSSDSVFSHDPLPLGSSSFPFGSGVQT
# KDR (VEGFR-2), sequence (P35968 20-1356): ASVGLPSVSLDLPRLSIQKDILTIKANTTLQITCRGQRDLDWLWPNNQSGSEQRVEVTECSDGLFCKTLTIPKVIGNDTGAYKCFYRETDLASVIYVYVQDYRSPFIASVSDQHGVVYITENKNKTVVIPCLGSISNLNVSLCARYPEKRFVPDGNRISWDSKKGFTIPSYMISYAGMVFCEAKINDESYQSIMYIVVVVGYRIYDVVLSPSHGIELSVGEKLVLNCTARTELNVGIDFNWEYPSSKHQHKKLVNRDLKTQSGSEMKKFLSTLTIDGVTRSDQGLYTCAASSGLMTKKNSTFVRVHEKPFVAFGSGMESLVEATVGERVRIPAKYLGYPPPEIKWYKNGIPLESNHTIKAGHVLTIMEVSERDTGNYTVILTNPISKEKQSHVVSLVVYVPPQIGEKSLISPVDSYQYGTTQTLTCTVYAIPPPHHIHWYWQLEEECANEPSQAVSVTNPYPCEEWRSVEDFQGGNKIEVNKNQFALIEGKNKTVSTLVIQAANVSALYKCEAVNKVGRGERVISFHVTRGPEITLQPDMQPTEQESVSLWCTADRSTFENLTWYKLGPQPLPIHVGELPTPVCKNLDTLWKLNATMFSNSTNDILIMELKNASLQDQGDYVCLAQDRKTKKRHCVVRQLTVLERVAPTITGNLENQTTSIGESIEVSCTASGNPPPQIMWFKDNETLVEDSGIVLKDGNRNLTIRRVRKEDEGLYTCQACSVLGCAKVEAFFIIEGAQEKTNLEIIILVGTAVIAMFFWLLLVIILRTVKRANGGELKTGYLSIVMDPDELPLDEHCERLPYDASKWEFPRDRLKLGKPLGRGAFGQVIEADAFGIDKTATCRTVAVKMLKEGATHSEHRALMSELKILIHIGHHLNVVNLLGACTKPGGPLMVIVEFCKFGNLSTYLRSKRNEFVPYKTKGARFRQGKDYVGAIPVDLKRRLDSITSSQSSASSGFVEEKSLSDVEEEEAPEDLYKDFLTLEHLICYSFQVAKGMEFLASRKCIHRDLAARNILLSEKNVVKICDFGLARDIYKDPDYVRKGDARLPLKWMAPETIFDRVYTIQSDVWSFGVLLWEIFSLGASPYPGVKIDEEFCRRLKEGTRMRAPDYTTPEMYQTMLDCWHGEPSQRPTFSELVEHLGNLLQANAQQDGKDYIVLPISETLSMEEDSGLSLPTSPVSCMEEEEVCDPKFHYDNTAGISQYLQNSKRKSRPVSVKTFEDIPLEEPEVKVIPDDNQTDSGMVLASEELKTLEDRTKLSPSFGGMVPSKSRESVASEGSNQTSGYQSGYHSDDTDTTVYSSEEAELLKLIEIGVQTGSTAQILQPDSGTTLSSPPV
structure (smiles),measurement,setting,value
"Cl.NC(=O)c1c(OCc2c(F)cc(Br)cc2F)nsc1NC(=O)NCCCCN1CCCC1 [Compound-I, 3-[(4-bromo-2,6-difluorophenyl)methoxy]-5-[[[[4-(1-pyrrolidinyl)butyl]amino]carbonyl]amino]-4-isothiazolecarboxamide hydrochloride]",concentration at 1 h,[1],30 µM
same,Inhibition of growth of human tumor xenographs,human tumor xenographs,shown to inhibit
same,"IC50, FGFR-4",FGFR-4; 10-point titration curve,(284.45) ng/mL
same,IC50,FGFR-4; [12],500 nM
same,IC50,FGFR-2; [12],3.08 nM
same,"IC50, FGFR-2","FGFR-2; 10-point titration curve, hydrochloride",1.75 ng/mL and (1.75) ng/mL
same,Compound-I dose strengths solubilised by cyclodextrin,[2],0.1-1.0%
same,Delivery of Compound-I to posterior segment tissues,[3],dose-dependent and dose-frequency dependent
same,IC50,[4],8.79 nM
same,"IC50, recombinant FGFR-2 tyrosine kinase",[4]; hydrochloride,5 ng/mL and (5) ng/mL
same,Inhibition of pathologic retinal and choroidal neovascularization,[5],significant inhibition
same,Reduction of corneal exposure with suspension-based and cyclodextrin formulations,[6]; Dutch-belted,10-100 ×
same,Corneal concentrations with Gel Drop compared to Tris-based suspensions,[6],fifty-fold to hundred-fold higher
same,Corneal concentrations with Gel Drop compared to cyclodextrin based solution,[6],five-fold to fifteen-fold higher
same,concentration at 24 h,[7],0.00518 µM
same,"Average Concentration, Central Retina",[8],<LLOQ
same,Corneal exposure of ophthalmic solution lower than equimolar ophthalmic gel drops,[9]; [13],5 to 10 fold
same,Corneal tissue exposure with ophthalmic gel drops,[9]; [13],≥ 100 µM
same,"Alterations of deeper structures of the eye or optic nerve, ophthalmic gel drops",[9],No untoward alterations
same,Clinical or histopathologic findings with ophthalmic solution,[9],free of untoward clinical or histopathologic findings
same,Central Choroid [Compound I],[10]; [14],0.340 µM
same,Cornea [Compound I],[10]; [14],236.00 µM
same,"Mean ocular tissue concentration, aqueous humor",[10]; [15],0.0197 to 0.0395 µM
same,"Mean ocular tissue concentration, peripheral choroid",[10]; [15],2.79 to 4.10 µM
same,"Mean ocular tissue concentration, peripheral retina",[10]; [15],0.150 to 0.309 µM
same,"Microscopic evaluation of eyes, Tris-based suspension",[11]; 0.3% w/v twice daily for 30 days,considered normal
same,Findings attributed to test-article after 30 days of 0.6% cyclodextrin-based solution,"[11]; Dutch-belted rabbits, topical ocular",no untoward findings
same,"Tolerability of HP-β-CD cyclodextrin-based solutions, 30 days","[11]; rabbit, in vivo",well tolerated
same,Tolerability of Tris-based suspension formulations,"[11]; rabbit, in vivo",well tolerated
same,"Tolerability of cyclodextrin-based solutions, 24 days","[11]; rabbit, in vivo",well-tolerated
same,"Retinal function, full-field electroretinograms","[11]; rabbits, all test article treated groups",normal
same,"Mean % Inhibition at 300 nM Compound-I, KDR (VEGFR-2)",KDR (VEGFR-2),completely inhibited
same,Inhibition of pathologic angiogenesis,pathologic angiogenesis,shown to inhibit
